Results: publication PMC6751730 (ACS Omega, 2019)

Key:
BEAS-2B normal cells = experiment: MTT antiproliferative assay, normal cells BEAS-2B; type: cell-based; settings: 24 h drug exposure
HepG2 cancer cells = experiment: MTT antiproliferative assay, HepG2; type: cell-based; settings: 24 h drug exposure
A549 cancer cells = experiment: MTT antiproliferative assay, A549; type: cell-based, human; settings: 24 h drug exposure
HeLa cancer cells = experiment: MTT antiproliferative assay, HeLa; type: cell-based, human; settings: 24 h drug exposure
lysosomes in A549 cells = settings: cited from earlier work

Compound: N.N.[Cl][Pt][Cl] [cisplatin]
- IC50 (BEAS-2B normal cells): 42 ± 2.3 µM
- IC50 (HepG2 cancer cells): 22.7 ± 1.1 µM
- IC50 (A549 cancer cells): 21.3 ± 1.7 µM
- IC50 (HeLa cancer cells): 7.5 ± 0.2 µM

Compound: CCNc1cc2c(cc1C)C1(c3cc(C)c(NCC)cc3O2)c2ccccc2C(=O)N1N [rhodamine 6G hydrazide]
- Colocalization coefficient with lysosome (lysosomes in A549 cells): 0.58

Compound: CCN(CC)c1ccc2c(c1)Oc1cc(N(CC)CC)ccc1C21c2ccccc2C(=O)N1N [rhodamine B hydrazide]
- Colocalization coefficient with lysosome (lysosomes in A549 cells): 0.62
